The source of these data is publication PMC5940834, “Discovery and functional characterisation of a luqin-type neuropeptide signalling system in a deuterostome” (Scientific Reports, 2018).

In one test the test system is ArLQR2. The test is described as follows: ArLQ/neuropeptide activation of ArLQR2, bioluminescence in CHO-ArLQR2 cells. The class given is cell-based, Asterias rubens. The note with it: ArLQ 1 × 10^−4 to 1 × 10^−14 M, other neuropeptides 1 × 10^−4 to 1 × 10^−13 M. From the text: (§1) To enable pharmacological characterisation of ArLQR1 and ArLQR2, cDNAs encoding these receptors were amplified by PCR, using A. rubens radial nerve cord total cDNA, specific primers (see supplementary Table 1 for a list of the primers) and Q5 polymerase (NEB; Cat. No. M0491S). First, the receptor cDNAs were ligated into the phagemid vector pBluescript II SK + (Agilent Technologies; Cat. No. 212205) using a blunt-end ligation method. The vector was cut with the restriction enzyme EcoRV (NEB; Cat. No. R0195S) and the ligation was performed using T4 DNA ligase (NEB; Cat. No. M0202S). Successful ligation was confirmed by PCR, restriction enzyme digestion and sequencing (TubeSeq service; Eurofins Genomics). The receptor cDNAs were then sub-cloned into the eukaryotic expression vector pcDNA 3.1( + ) (Invitrogen; Cat. No. V790-20). To accomplish this, forward primers included the partial Kozak consensus sequence (ACC) and a sequence corresponding to the first 21 bases of the ArLQR1 or ArLQR2 ORFs, including the start codon. Reverse primers consisted of a stop codon and a sequence reverse complementary to the ORF encoding the C-terminal region of ArLQR1 or ArLQR2 (see supplementary Table 1 for a list of the primers). PCR was performed using Q5 polymerase NEB and the cDNA products were ligated into the pcDNA 3.1(+) vector that had been cut previously with the restriction enzyme EcoRV by performing blunt-end ligation with T4 DNA ligase NEB. The direction of the insert was determined by restriction enzyme digestion and sequencing. The ArLQR1 and ArLQR2 sequences have been deposited in the GenBank database under accession numbers MG744509 and MG744510 respectively.
(§2) To determine if ArLQ acts as a ligand for ArLQR1 and/or ArLQR2, the receptors were expressed in Chinese hamster ovary cells (CHO-K1) stably expressing the calcium-sensitive bioluminescent reporter GFP-aequorin fusion protein (G5A)[43]. CHO-K1 cells were maintained at 37 °C in T25 culture flasks (USA Scientific; Cat. No. CC7682-4325) containing 6 ml of DMEM/F12 Nutrient Mixture medium (Thermo Fisher Scientific; Cat. No. 11039047) supplemented with 10% fetal bovine serum (Thermo Fisher Scientific; Cat. No. 10082147), Antibiotic-Antimycotic 1 × (Thermo Fisher Scientific, Cat. No. 15240062) and 200 μg/ml of Geneticin G418 sulfate (Thermo Fisher Scientific, Cat. No. 10131035). Upon reaching a confluency of approximately 80%, cells were transfected with the plasmids containing ArLQR1 or ArLQR2 receptor cDNAs and a plasmid containing the promiscuous Gα-16 protein that can couple a wide range of GPCRs to the phospholipase C pathway. The transfection was achieved using 5 µg of each plasmid and 8 μl of the transfection reagent Lipofectamine 3000 following the manufacturer instructions (Thermo Fisher Scientific; Cat. No. L3000008). Two days post-transfection, the culture medium was removed and the cells detached by the addition of 2 ml of 1 × PBS buffer pH 7.4 (Thermo Fisher Scientific; Cat. No. 10010023) supplemented with UltraPure EDTA 0.5 M pH 8.0 (Thermo Fisher Scientific; Cat. No. 15575020) to a final concentration of 5 mM EDTA. […] Luminescence levels were recorded over a 35-second period using a FLUOstar Omega Plate Reader (BMG LABTECH; FLUOstar Omega Series multi-mode microplate reader). […]

In a further test the test system is ArLQR1. The test is described as follows: ArLQ/neuropeptide activation of ArLQR1, bioluminescence in CHO-ArLQR1 cells. Format: cell-based, Asterias rubens. The following applies: ArLQ 1 × 10^−4 to 1 × 10^−14 M, other neuropeptides 1 × 10^−4 to 1 × 10^−13 M.
Source text: as §1, §2

Test [1] concerns cardiac stomach preparations. The following applies: "all three of these preparations"; cited from earlier work. The procedure: Informed by findings from analysis of the expression of ArLQP in A. rubens (see results), synthetic ArLQ (custom synthesized by PPR Ltd, Fareham, UK) was tested on tube foot and cardiac stomach preparations from A. rubens. […] Tube foot preparations were obtained by dissecting from starfish arms a small square-shaped piece of ambulacral body wall containing a single tube foot stem and its associated ampulla. Co ...

In the next test the test system is tube foot preparations. The following applies: A. rubens; cited from earlier work. From the text: Figure 6 ArLQ causes relaxation of in vitro preparations of tube feet from A. rubens. […] (B). […] Tube foot preparations were obtained by dissecting from starfish arms a small square-shaped piece of ambulacral body wall containing a single tube foot stem and its associated ampulla. Co ...

Test [2] relates to neurons and muscles involved in feeding behaviour. The following applies: Achatina fulica; cited from earlier work. The source says:
(§3) Neuropeptides play a central role in the control of diverse physiological processes and behaviours in animals. Furthermore, neuropeptides are evolutionarily ancient mediators of neuronal signalling and a large number of different neuropeptide signalling pathways were already present in the common ancestor of protostomes and deuterostomes[1]–[3]. The discovery of neuropeptide signalling systems has been enabled by a variety of experimental strategies. The luqin-type neuropeptide system that is the focus of this study was first discovered using a molecular biological approach where the object ...

A further test relates to heart ventricle. The note with it: Achatina fulica; cited from earlier work.
Source text: as §3

Another test concerns GRL106. The note with it: orphan G-protein coupled receptor; cited from earlier work.
Source text: as §3

A further test concerns auricle preparations. The note with it: Lymnaea stagnalis; cited from earlier work.
Source text: as §3

In test [3] the test system is receptor for the luqin-type peptide WRPGRFamide. The note with it: cited from earlier work.
Source text: as §3

Entries after “also recorded” stand apart in the source; their conditions may differ. Where no end group is shown, it is not given here.

“GGGVPHVFQSGGIF-NH2 [ArTK2, tachykinin-like peptide from A. rubens]”: the “activation of ArLQR2 (in words)” value with ArLQR2 is “none of them caused activation of the receptors”; in the test with ArLQR2 (listed as ArTKL), “do not activate the receptors”. Also, the “activation of ArLQR1 (in words)” value in the test on ArLQR1 is “none of them caused activation of the receptors”; in the test with ArLQR1 (listed as ArTKL) it was “do not activate the receptors”.
Regarding SGPYSFNSGLTF-NH2 [S2], the “relaxant effect on cardiac stomach and other preparations (earlier studies)” value in [1] is reported as “relaxant of all three of these preparations”. For the same substance, the “activation of ArLQR2 (in words)” value in the test on ArLQR2 is “do not activate the receptors”; with ArLQR2 (listed as SALMFamide-2), “none of them caused activation of the receptors”. Further, the “activation of ArLQR1 (in words)” value with ArLQR1 was “do not activate the receptors”; with ArLQR1 (listed as SALMFamide-2), “none of them caused activation of the receptors”. Also, the “relaxation of tube foot preparations (earlier studies)” value in the test with tube foot preparations is on record as “known tube foot relaxant; also recorded: causes relaxation of tube foot preparations; also recorded: relaxant of all three of these preparations”.
In the case of “SGQWRPQGRF-NH2 [ACEP-1, homolog of luqin (…amide) discovered in the snail Achatina fulica]”, the “effect on neurons and muscles involved in feeding behaviour” value in test [2] was “excitatory effects on neurons and muscles involved in feeding behaviour”. Further, the “effect on beat of the heart ventricle” value in the test on heart ventricle is listed as “potentiating the beat of the heart ventricle”.
“TPHWRPQGRF-NH2 [LyCEP, luqin-type peptide (…amide) discovered in the pond snail Lymnaea stagnalis]”: the “receptor identified for the peptide (GRL106)” value with GRL106 is given as “identified as the receptor for this peptide”. Further, the “effect on beating frequency of auricle preparations” value in the test on auricle preparations is “increases the beating frequency of auricle preparations”.
On to “WRPGRF-NH2 [luqin-type peptide of the annelid Platynereis dumerilii]”, for which, in test [3], the “receptor identified for the peptide (P. dumerilii)” value was “has been identified in the annelid Platynereis dumerilii”.
Regarding “pQDRSKAMQAERTGQLRRLNPRF-NH2 [ArNPY, Neuropeptide Y-type peptide from A. rubens]”, the “activation of ArLQR2 (in words)” value in the test on ArLQR2 is given as “do not activate the receptors; also recorded: none of them caused activation of the receptors”. Moreover, in the test on ArLQR1, the “activation of ArLQR1 (in words)” value is on record as “do not activate the receptors; also recorded: none of them caused activation of the receptors”.
